Read-outs that look alike come from different tables or passages of the source.
What was measured:
[1] = tested on: CFU-GM lineage; assay: Bone marrow toxicity, CFU-GM; format: cell-based, human; conditions: human, Cytotoxicity IC50, bone marrow CFU-GM, three separate donors
[2] = in vitro; conditions: African green monkey
[3] = tested on: HepG2 cells; conditions: HepG2, 14 day; for mitochondrial toxicity: at 10 μM
[4] = HepG2 cytotoxicity, 3 day, glucose/galactose media; format: cell-based; conditions: human
[5] = tested on: BFU-E lineage; assay: Bone marrow toxicity, BFU-E; format: cell-based, human; conditions: human, Cytotoxicity IC50, bone marrow BFU-E, three separate donors
[6] = tested on: HCV GT1b-WT replicon; assay: GT1b stably transfected replicon in Huh-7 cells; format: cell-based; conditions: Hepatitis C virus; for EC50: Huh-7, read-out: EC50 GT1b-WT; for EC90: Huh-7, read-out: EC90 GT1b-WT
[7] = target: T1, human ether-à-go-go-related gene (hERG) potassium channels (Homo sapiens, UniProt Q12809); conditions: cited from earlier work
T1 sequence (Q12809 whole entry): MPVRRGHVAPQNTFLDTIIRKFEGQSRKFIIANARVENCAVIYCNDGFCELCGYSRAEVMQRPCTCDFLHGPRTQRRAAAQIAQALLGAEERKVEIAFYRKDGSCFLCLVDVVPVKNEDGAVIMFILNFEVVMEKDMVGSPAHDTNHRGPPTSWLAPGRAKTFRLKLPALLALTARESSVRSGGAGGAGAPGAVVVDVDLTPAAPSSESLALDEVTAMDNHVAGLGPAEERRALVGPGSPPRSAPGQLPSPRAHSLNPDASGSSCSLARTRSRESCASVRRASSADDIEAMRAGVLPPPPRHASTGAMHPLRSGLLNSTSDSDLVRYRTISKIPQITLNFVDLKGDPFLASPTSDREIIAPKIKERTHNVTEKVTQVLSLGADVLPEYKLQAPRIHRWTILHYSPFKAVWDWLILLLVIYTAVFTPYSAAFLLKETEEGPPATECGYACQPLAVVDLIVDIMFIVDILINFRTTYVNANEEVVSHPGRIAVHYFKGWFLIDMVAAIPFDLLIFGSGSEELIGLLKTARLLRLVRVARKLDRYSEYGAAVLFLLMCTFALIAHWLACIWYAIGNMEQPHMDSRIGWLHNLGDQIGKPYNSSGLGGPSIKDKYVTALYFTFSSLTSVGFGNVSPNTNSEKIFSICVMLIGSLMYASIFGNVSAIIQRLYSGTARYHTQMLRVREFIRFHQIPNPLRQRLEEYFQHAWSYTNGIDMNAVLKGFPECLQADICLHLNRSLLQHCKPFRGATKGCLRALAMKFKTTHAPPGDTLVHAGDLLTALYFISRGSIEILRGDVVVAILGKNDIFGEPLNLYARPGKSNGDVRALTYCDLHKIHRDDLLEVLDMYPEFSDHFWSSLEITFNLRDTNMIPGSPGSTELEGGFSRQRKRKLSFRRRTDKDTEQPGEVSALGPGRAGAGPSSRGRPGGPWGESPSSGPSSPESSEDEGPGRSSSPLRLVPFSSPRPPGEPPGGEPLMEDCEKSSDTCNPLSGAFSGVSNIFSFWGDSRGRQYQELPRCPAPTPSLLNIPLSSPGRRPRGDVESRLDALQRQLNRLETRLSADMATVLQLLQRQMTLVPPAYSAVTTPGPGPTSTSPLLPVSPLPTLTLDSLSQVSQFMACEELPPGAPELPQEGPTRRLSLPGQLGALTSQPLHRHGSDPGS

[8] = Cardiac toxicity in stem cell-induced ventricular cardiomyocytes; conditions: human
[9] = In vitro nephrotoxicity in HK-2 cells, 3 day assay; conditions: human
[10] = tested on: Salmonella typhimurium (TA98, TA100, TA1535, and TA1537) and Escherichia coli WP2 uvrA (pKM101); conditions: cited from earlier work
[11] = tested on: HCV GT1b/3a chimeric replicon; assay: Chimeric replicon GT1b/3a in Huh-7 cells; format: cell-based; conditions: Hepatitis C virus, Huh-7, read-out: EC90 GT1b/3a
[12] = in vitro; conditions: human, microsomes
[13] = target: T2, DNA polymerase γ (Homo sapiens, UniProt P54098); assay: Human DNA polymerase γ inhibition; format: biochemical
T2 sequence (P54098 1-1239): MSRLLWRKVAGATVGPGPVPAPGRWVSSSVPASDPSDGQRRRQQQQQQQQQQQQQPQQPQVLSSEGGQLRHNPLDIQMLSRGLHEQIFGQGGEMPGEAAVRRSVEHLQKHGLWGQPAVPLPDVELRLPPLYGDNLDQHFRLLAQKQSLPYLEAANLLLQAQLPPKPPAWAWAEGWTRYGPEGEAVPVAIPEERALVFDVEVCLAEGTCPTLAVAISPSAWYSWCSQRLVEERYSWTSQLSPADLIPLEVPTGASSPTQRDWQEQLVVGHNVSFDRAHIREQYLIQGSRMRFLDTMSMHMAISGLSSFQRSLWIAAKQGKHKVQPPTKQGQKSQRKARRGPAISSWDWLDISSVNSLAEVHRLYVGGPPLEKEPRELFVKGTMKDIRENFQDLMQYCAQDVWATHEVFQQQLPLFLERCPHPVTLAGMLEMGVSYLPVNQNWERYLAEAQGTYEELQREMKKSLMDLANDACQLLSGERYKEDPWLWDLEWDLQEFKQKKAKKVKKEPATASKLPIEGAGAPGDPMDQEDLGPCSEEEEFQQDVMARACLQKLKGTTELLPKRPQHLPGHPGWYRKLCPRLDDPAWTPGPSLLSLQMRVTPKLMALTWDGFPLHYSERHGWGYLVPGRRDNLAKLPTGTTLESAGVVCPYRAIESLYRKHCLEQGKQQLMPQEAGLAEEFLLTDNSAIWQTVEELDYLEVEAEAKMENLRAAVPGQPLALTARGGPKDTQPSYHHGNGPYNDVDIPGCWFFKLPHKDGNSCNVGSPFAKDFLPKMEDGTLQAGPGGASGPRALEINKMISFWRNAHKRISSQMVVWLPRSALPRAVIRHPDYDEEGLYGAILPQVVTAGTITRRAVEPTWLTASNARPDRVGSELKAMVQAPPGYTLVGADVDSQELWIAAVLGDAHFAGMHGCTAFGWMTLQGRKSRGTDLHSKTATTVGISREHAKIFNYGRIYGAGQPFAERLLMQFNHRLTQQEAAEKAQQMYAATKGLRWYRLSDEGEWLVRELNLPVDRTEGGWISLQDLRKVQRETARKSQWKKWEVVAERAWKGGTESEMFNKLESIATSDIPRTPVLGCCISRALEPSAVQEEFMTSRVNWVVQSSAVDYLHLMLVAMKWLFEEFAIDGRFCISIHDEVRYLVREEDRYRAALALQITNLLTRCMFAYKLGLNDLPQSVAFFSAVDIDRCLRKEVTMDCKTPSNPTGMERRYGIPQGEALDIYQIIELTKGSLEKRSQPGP

[14] = target: DNA polymerase β (Homo sapiens, UniProt P06746); assay: Human DNA polymerase β inhibition; format: biochemical
[15] = tested on: HCV GT2a; assay: GT2a infectious assay in Huh-7 cells; format: cell-based; conditions: Hepatitis C virus, Huh-7, read-out: EC90 GT2a
[16] = for Clint(liver): scaled from Clint(mic)
[17] = Stability in simulated gastric fluid; format: physicochemical; conditions: 37 °C
[18] = tested on: HCV GT1b/5a chimeric replicon; assay: Chimeric replicon GT1b/5a in Huh-7 cells; format: cell-based; conditions: Hepatitis C virus, Huh-7, read-out: EC90 GT1b/5a
[19] = Stability in human intestinal microsomes
[20] = tested on: HCV GT1b/4a chimeric replicon; assay: Chimeric replicon GT1b/4a in Huh-7 cells; format: cell-based; conditions: Hepatitis C virus, Huh-7, read-out: EC90 GT1b/4a
[21] = tested on: Salmonella typhimurium (TA98, TA100, TA1535, and TA1537) and Escherichia coli WP2 uvrA (pKM101); assay: Mini Ames reverse mutation study; conditions: with and without S9 mix
[22] = target: T1, human ether-à-go-go-related gene (hERG) potassium channels; assay: hERG whole-cell patch clamp in CHO cells; format: cell-based
[23] = Stability in simulated intestinal fluid; conditions: 37 °C
[24] = HepG2 cytotoxicity, 14 day, glucose/galactose media; format: cell-based; conditions: human
[25] = tested on: colony-forming unit-granulocyte, macrophage (CFU-GM) lineage; assay: Bone marrow toxicity, CFU-GM; format: cell-based, human; conditions: positive control, at the concentration tested
[26] = tested on: burst forming unit-erythroid (BFU-E) lineage; assay: Bone marrow toxicity, BFU-E; format: cell-based, human; conditions: positive control, at the concentration tested

SMILES: O=c1ccn([C@@H]2O[C@H](CO)[C@@H](O)[C@]2(F)Br)c(=O)[nH]1 [Compound 12, 1-((2R, 3S, 4R, 5R)-3-Bromo-3-fluoro-4-hydroxy-5-(hydroxymethyl)tetrahydrofuran-2-yl)pyrimidine-2,4(1H,3H)-dione]
- IC50 [1]: > 100000 nM
- CC50 [2]: > 100000 nM
- MtDNA content % of control (range) ([3]; 50 μM): 72 (63–83) % of control
- lactic acid production (% of control) ([3]; 50 μM): 69 ± 14 % of control
- measurable mitochondrial toxicity (none up to) [3]: > 50 µM

SMILES: CC(C)OC(=O)[C@H](C)NP(=O)(OC[C@H]1O[C@@H](n2ccc(=O)[nH]c2=O)[C@](F)(Br)[C@H]1O)Oc1ccccc1 (mixture of isomers) [Compound 14]
- IC50 [1]: > 100000 nM
- IC50 at 3 days [4]: > 100000 nM
- MtDNA content % of control (range) ([3]; 50 μM): 100 (99–104) % of control
- measurable mitochondrial toxicity (none up to) [3]: > 50 µM
- IC50 [5]: > 100000 nM

SMILES: CC(C)OC(=O)[C@H](C)N[P@](=O)(OC[C@H]1O[C@@H](n2ccc(=O)[nH]c2=O)[C@](C)(F)[C@@H]1O)Oc1ccccc1 [SOF, sofosbuvir, reference compound]
- EC50 [6]: 34 nM
- EC90 [6]: 150 ± 30 nM
- hERG channel inhibition [7]: free from hERG channel inhibition
- IC50 [8]: > 100000 nM
- MtDNA content % of control (range) ([3]; 12.5 μM): 96 (90–100) % of control
- MtDNA content % of control (range) ([3]; 50 μM): 130 (120–150) % of control
- IC50 at 3 days [9]: > 300000 nM
- mutagenicity [10]: negative for mutagenicity
- EC90 [11]: 370 ± 10 nM

SMILES: Nc1ccn([C@H]2CC[C@@H](CO)O2)c(=O)n1 [ddC, β-D-2′,3′-dideoxycytidine, reference compound]
- MtDNA content % of control (range) ([3]; 10 μM): 7.3 % of control
- mitochondrial toxicity [3]: highly toxic

SMILES: O=C(O)Cc1ccccc1Nc1c(Cl)cccc1Cl [diclofenac, reference compound]
- microsomal CLint [12]: 129 µL/min/mg

SMILES: Cc1cn([C@H]2CC[C@@H](COP(=O)(O)OP(=O)(O)OP(=O)(O)O)O2)c(=O)[nH]c1=O [ddTTP]
- IC50 [13]: 100 ± 70 nM
- IC50 [14]: 8400 ± 110 nM

SMILES: CC(C)OC(=O)[C@H](C)N[P@](=O)(OC[C@H]1O[C@@H](n2ccc(=O)[nH]c2=O)[C@@](F)(Br)[C@@H]1O)Oc1ccccc1 [Compound 28, Isopropyl ((S)-(((2R,3R,4S,5R)-4-Bromo-5-(2,4-dioxo-3,4-dihydro-pyrimidin-1(2H)-yl)-4-fluoro-3-hydroxytetrahydrofuran-2-yl)-methoxy)(phenoxy)phosphoryl)-L-alaninate]
- half-life [12]: 19.7 min
- microsomal CLint [12]: 70.2 µL/min/mg
- EC90 [6]: 74 ± 2 nM
- EC90 [15]: 77 nM
- IC50 at 3 days [4]: > 100000 nM
- remaining after 60 min ([16]; human liver microsomes): 3%
- Clint(liver) [16]: 63.2 mL/min/kg
- IC50 [8]: > 100000 nM
- simulated gastric fluid (24 h), loss [17]: ~2% loss
- CC50 [2]: > 100000 nM
- EC90 [18]: 83 ± 20 nM
- MtDNA content % of control (range) ([3]; 12.5 μM): 86 (79–93) % of control
- MtDNA content % of control (range) ([3]; 25 μM): 110 (110–110) % of control
- MtDNA content % of control (range) ([3]; 50 μM): 150 (150–150) % of control
- mitochondrial toxicity [3]: no mitochondrial toxicity
- half-life [19]: > 145 min
- EC90 [20]: 130 ± 3 nM
- mutagenicity (mini Ames) [21]: negative for mutagenicity
- IC50 [22]: > 30000 nM
- stability in simulated intestinal fluid (24 h) [23]: stable
- IC50 at 14 days [24]: > 100000 nM

SMILES: CC(C)OC(=O)[C@H](C)N[P@@](=O)(OC[C@H]1O[C@@H](n2ccc(=O)[nH]c2=O)[C@@](F)(Br)[C@@H]1O)Oc1ccccc1 [Compound 27, Isopropyl ((R)-(((2R,3R,4S,5R)-4-Bromo-5-(2,4-dioxo-3,4-dihydro-pyrimidin-1(2H)-yl)-4-fluoro-3-hydroxytetrahydrofuran-2-yl)-methoxy)(phenoxy)phosphoryl)-L-alaninate]
- IC50 [1]: > 100000 nM
- half-life [12]: 18.4 min
- microsomal CLint [12]: 75.3 µL/min/mg
- EC50 [6]: 92 nM
- EC90 [15]: 830 ± 10 nM
- IC50 at 3 days [4]: > 100000 nM
- Clint(liver) [16]: 67.8 mL/min/kg
- IC50 [8]: > 100000 nM
- simulated gastric fluid (24 h), loss [17]: ~2% loss
- CC50 [2]: > 100000 nM
- EC90 [18]: 800 ± 1500 nM
- MtDNA content % of control (range) ([3]; 50 μM): 65 (65–65) % of control
- lactic acid production (% of control) ([3]; 50 μM): 100 ± 6.2 % of control
- half-life [19]: 132 min
- EC90 [20]: 870 ± 230 nM
- IC50 [5]: > 100000 nM
- EC90 [11]: 1600 ± 20 nM
- mutagenicity (mini Ames) [21]: negative for mutagenicity
- IC50 [22]: > 30000 nM
- stability in simulated intestinal fluid (24 h) [23]: stable
- IC50 at 14 days [24]: > 100000 nM

SMILES: Cc1cn([C@H]2C[C@H](N=[N+]=[N-])[C@@H](CO)O2)c(=O)[nH]c1=O [AZT, reference compound]
- toxicity in myelomonocytic progenitors [25]: high toxicity
- toxicity in erythroid progenitors [26]: high toxicity

From PMC7722249 (Journal of medicinal chemistry, 2019)
